Active and inactive are the calls of the source. The rule behind the calls is not given here.
Experiments:
[1] = biological target: Glutamate carboxypeptidase 2 (Homo sapiens, UniProt Q04609); assay: Inhibition of human recombinant GCP2 using N-acetyl-L-aspartyl[3H]-L-glutamate as substrate
Rattus norvegicus = assay: Antinociceptive effect in rat chronic constriction injury model of neuropathic pain assessed as reduction of CCI-induced thermal hyperalgesia at 10 mg/kg/day, po after 11 to 18 days relative to vehicle-treated control; format: functional, organism-based
[2] = Prodrug conversion in simulated gastric fluid at pH 1.2 after 48 hrs by HPLC analysis; format: ADME; conditions: simulated gi fluid, pH 1.2, 48 h
Plasma = assay: Prodrug conversion in rat plasma assessed as 2-MPPA formation at 10 mg/kg, po after 0.25 to 3 hrs; format: ADME, organism-based; set-up: dose 10 mg/kg, route oral; conditions: in vivo
Liver microsome [3] = assay: Prodrug conversion in rat liver microsomes assessed as 2-MPPA formation at 10 uM by LC/MS/MS analysis; format: ADME; conditions: TDE = time-dependent effect
Liver microsome [4] = assay: Prodrug conversion in rat liver microsomes at 10 uM after 1.5 hrs by LC/MS/MS analysis; format: ADME

Glutamate carboxypeptidase 2, sequence (Q04609 whole entry): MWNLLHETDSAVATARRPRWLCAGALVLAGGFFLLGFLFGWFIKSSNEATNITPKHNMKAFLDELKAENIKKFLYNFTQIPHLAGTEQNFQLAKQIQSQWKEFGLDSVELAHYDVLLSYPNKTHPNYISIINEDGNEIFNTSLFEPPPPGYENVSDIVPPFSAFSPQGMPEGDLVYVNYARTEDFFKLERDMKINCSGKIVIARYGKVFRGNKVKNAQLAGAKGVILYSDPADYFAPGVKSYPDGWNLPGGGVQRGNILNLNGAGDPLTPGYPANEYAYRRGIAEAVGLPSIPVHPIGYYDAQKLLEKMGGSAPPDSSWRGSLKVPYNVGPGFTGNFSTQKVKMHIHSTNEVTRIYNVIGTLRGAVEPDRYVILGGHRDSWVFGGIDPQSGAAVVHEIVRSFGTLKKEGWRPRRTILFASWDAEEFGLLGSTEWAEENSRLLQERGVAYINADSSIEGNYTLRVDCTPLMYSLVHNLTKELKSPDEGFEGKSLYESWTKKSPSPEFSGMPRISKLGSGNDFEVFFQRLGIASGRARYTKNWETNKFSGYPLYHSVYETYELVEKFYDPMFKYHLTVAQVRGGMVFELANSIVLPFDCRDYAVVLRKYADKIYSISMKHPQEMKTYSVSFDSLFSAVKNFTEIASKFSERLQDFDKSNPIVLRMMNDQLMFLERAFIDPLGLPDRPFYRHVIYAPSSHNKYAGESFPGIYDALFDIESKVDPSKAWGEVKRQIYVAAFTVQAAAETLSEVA

IC50 [1] | Stability [2] | Drug metabolism (Plasma) | Activity (Liver microsome [3]) | Stability (Liver microsome [4]) | Compound | Activity (Rattus norvegicus)
2 µM | Stable | Active | – | – | O=C(O)CCC1CCCSC1=O (racemic) | Active
– | – | – | tde | – | O=C(O)CCC(CCCS)C(=O)O (stereo not drawn) | –
20 µM | Stable | – | – | Stable | O=C(O)c1cccc(-c2cccc3c2C(=O)SCC3)c1 | –

From ChEMBL document CHEMBL3112468, “δ-Thiolactones as prodrugs of thiol-based glutamate carboxypeptidase II (GCPII) inhibitors” (J Med Chem, 2014)
